Test results reported in patent publication US20100323990A1, “SHIP 1 MODULATOR PRODRUGS” (THE UNIVERSITY OF BRITISH COLUMBIA, priority 2006, published 2010).

What was measured:
Mast cells = experiment: Stimulation of mast cells by FcεRI crosslinking (Assay 4); type: cell-based; details: test compound 30 min prior to DNP-HSA
Method: Assay 1) In vitro testing in a SHIP enzyme assay. Test compounds were dissolved in a suitable solvent (e.g. EtOH, DMSO and others) and diluted into aqueous buffer (20 mM Tris HCl, pH 7.5 and 10 mM MgCl2). SHIP enzyme assays were performed in 96-well microtitre plates with 10 ng of enzyme/well in a total volume of 25 μL of 20 mM Tris HCl, pH 7.5 and 10 mM MgCl2. SHIP enzyme was incubated with test extracts (provided in solvent) or vehicle for 15 min at 23° C. before the addition of 100 μM inositol-1,3,4,5-tetrakisphosphate (Echelon Biosciences Inc, Salt Lake City, Utah). After 20 min at 37° C. and the amount of inorganic phosphate released assessed by the addition of Malachite Green reagent and absorbance measurement at 650 nm. Assay 2) Macrophage TNF-α production. J774.1a macrophage cells were treated with 10 μg/mL of test compound dissolved in solvent (e.g. cyclodextran) for 40 minutes prior to the addition of 100 ng/mL LPS. Culture supernatants were collected after 2 hr and 5 hr for TNF-α determination by ELISA. Assay 3) Macrophage TNF-α NO assay. J774.1a macrophage cells were treated with 10 μg/ml of test compound dissolved in solvent for 40 minutes prior to the addition of LPS. Culture supernatants were collected after 24 hr. for determination of NO concentration using the Griess reagent. Assay 4) Stimulation of mast cells by FcεRI crosslinking. Mast cells were pre-loaded overnight in BMMC medium lacking IL-3 with 0.1 μg/ml anti-DNP IgE (SPE-7, Sigma, Oakville, Ont). For calcium flux measurements, cells were incubated with 2 μM fura 2-acetoxymethyl ester (Molecular Probes, Eugene, Oreg.) in Tyrode's buffer at 23° C. for 45 min. Cells were then washed and incubated in the presence of the test compound 30 min prior to stimulation with the indicated concentration of DNP-human serum albumin (DNP-HSA). Calcium influx was monitored by spectrofluorometry as described previously. For analysis of intracellular signaling, cells were pre-loaded with anti-DNP IgE as above, pre-treated with the test compound for 30 min at 37° C. and stimulated with 20 ng/ml DNP-HSA for 5 min. Total cell lysates were then prepared and analyzed for phospho-PKB, phospho-p38^MAPK, phospho-MAPK, Grb-2 (Cell Signalling, Mississauga, Ont) and SHIP^6 by immunoblot analysis. Assay 5) Mouse acute cutaneous anaphylaxis model. […] The ability of SHIP activators to reduce tumor cell survival was assessed in MM cell lines treated with the test compound. The lines OPM1, OPM2, MM.1S and RPMI 8226 were plated at a density of 1×10^5 cells/mL in 200 μL of medium with various concentrations of the test compound, and viable cell numbers were determined on day 3 and day 5 by trypan blue exclusion. […]

SHIP enzyme = experiment: In vitro SHIP enzyme assay (Assay 1), phosphate release by Malachite Green; type: biochemical; as to Assay 1: SHIP enzyme assay, desired activity: key: a ‘+’ indicates a positive result for desired activity; a ‘−’ indicates a negative result for desired activity
Method: Assay 1) In vitro testing in a SHIP enzyme assay. Test compounds were dissolved in a suitable solvent (e.g. EtOH, DMSO and others) and diluted into aqueous buffer (20 mM Tris HCl, pH 7.5 and 10 mM MgCl2). SHIP enzyme assays were performed in 96-well microtitre plates with 10 ng of enzyme/well in a total volume of 25 μL of 20 mM Tris HCl, pH 7.5 and 10 mM MgCl2. SHIP enzyme was incubated with test extracts (provided in solvent) or vehicle for 15 min at 23° C. before the addition of 100 μM inositol-1,3,4,5-tetrakisphosphate (Echelon Biosciences Inc, Salt Lake City, Utah). After 20 min at 37° C. and the amount of inorganic phosphate released assessed by the addition of Malachite Green reagent and absorbance measurement at 650 nm. Assay 2) Macrophage TNF-α production. J774.1a macrophage cells were treated with 10 μg/mL of test compound dissolved in solvent (e.g. cyclodextran) for 40 minutes prior to the addition of 100 ng/mL LPS. Culture supernatants were collected after 2 hr and 5 hr for TNF-α determination by ELISA. Assay 3) Macrophage TNF-α NO assay. J774.1a macrophage cells were treated with 10 μg/ml of test compound dissolved in solvent for 40 minutes prior to the addition of LPS. Culture supernatants were collected after 24 hr. for determination of NO concentration using the Griess reagent. Assay 4) Stimulation of mast cells by FcεRI crosslinking. Mast cells were pre-loaded overnight in BMMC medium lacking IL-3 with 0.1 μg/ml anti-DNP IgE (SPE-7, Sigma, Oakville, Ont). For calcium flux measurements, cells were incubated with 2 μM fura 2-acetoxymethyl ester (Molecular Probes, Eugene, Oreg.) in Tyrode's buffer at 23° C. for 45 min. Cells were then washed and incubated in the presence of the test compound 30 min prior to stimulation with the indicated concentration of DNP-human serum albumin (DNP-HSA). Calcium influx was monitored by spectrofluorometry as described previously. For analysis of intracellular signaling, cells were pre-loaded with anti-DNP IgE as above, pre-treated with the test compound for 30 min at 37° C. and stimulated with 20 ng/ml DNP-HSA for 5 min. Total cell lysates were then prepared and analyzed for phospho-PKB, phospho-p38^MAPK, phospho-MAPK, Grb-2 (Cell Signalling, Mississauga, Ont) and SHIP^6 by immunoblot analysis. Assay 5) Mouse acute cutaneous anaphylaxis model. 6-8 week old CD1 mice (University of British Columbia Animal Facility, Vancouver, BC) were sensitized to the hapten DNP by cutaneous application of 25 μL of 0.5% dinitrofluorobenzene (DNFB) (Sigma, Oakville, Ont) in acetone to the shaved abdomen of mice for two consecutive days. 24 hrs later, test substances (dissolved in 10 μL of 1:2 DMSO:MeOH) were painted on the right ear while the left ear received vehicle control. 30 min after drug application, DNFB was applied to both ears to induce mast cell degranulation. A 6 mm punch was taken from the ear and immediately frozen on dry ice for subsequent determination of neutrophil myeloperoxidase (MPO) activity. Assay 6) Mouse endotoxemia model. 6-8 week old C57B16 mice (VCHRI Mammalian Model of Human Disease Core Facility, Vancouver, BC) were orally administered the test compound 30 min prior to an IP injection of 2 mg/kg of LPS (E. Coli serotype 0111:B4, Sigma, Oakville, Ont). Blood was drawn 2 hrs later for determination of plasma TNFα by ELISA. Assay 7) In vitro Mulitple Myeloma (MM) assay. The ability of SHIP activators to reduce tumor cell survival was assessed in MM cell lines treated with the test compound. The lines OPM1, OPM2, MM.1S and RPMI 8226 were plated at a density of 1×10^5 cells/mL in 200 μL of medium with various concentrations of the test compound, and viable cell numbers were determined on day 3 and day 5 by trypan blue exclusion. The lines RPMI 8226 and U266 were plated at a density of 1×10^6 cells/mL in 250 μL of medium with various concentrations of the test compound. At day 4, the medium of each culture was replaced by fresh medium containing the same concentration of test compound. […]

LNCaP cells = experiment: PKB activation in LNCaP cells, which do not express SHIP; type: cell-based, human; details: AQX-016A at doses up to 60 μM
Method: The ability of AQX-016A to inhibit activation of PIP3-dependent downstream signalling proteins in SHIP^+/+ vs SHIP^−/− was assessed. LPS stimulation of macrophages results in PKB phosphorylation. […] Similar protein loading was confirmed by reblotting with either antibodies to PKB or Grb2. […] Thus, AQX-016A inhibits PIP3-regulated intracellular signal transduction events in SHIP expressing hematopoietic cells, but not in SHIP-deficient hematopoietic or non-hematopoietic cells.

Row | SHIP enzyme activity in vitro (SHIP enzyme) | Assay 1: SHIP enzyme assay, desired activity (SHIP enzyme; 10 ng enzyme/well, 100 μM inositol-1,3,4,5-tetrakisphosphate) | SMILES | Assay 4: Stimulation of mast cells by FcεRI crosslinking, desired activity (Mast cells) | PKB phosphorylation in LNCaP cells (LNCaP cells)
1 | enhanced SHIP enzyme activity in vitro | + | Cc1cc(O)cc2c1[C@]1(C)CCC3C(C)(C)CCC[C@]3(C)[C@H]1C2 (stereo partly shown) [Compound 100] | + | 
2 |  |  | Cc1cc(O)c(O)c2c1[C@]1(C)CCC3C(C)(C)CCC[C@]3(C)[C@H]1C2 (stereo partly shown) [AQX-016A] |  | no effect
